Measured values reported in ChEMBL document CHEMBL1139723, “Novel imidazole-based combretastatin A-4 analogues: evaluation of their in vitro antitumor activity and molecular modeling study of their binding to the colchicine site of tubulin” (Bioorg Med Chem Lett, 2006).

Key:
[1] = Cytotoxicity against NCI-H460 cells; type: cell-based; conditions: human
[2] = Cytotoxicity against MDR HCT15 cells; type: cell-based; conditions: human, MDR HCT-15 cells
[3] = Cytotoxicity against NCI60 cell line; type: cell-based; conditions: human
HCC 2998 = assay: Tumor growth inhibition against HCC2998 cells; type: functional; conditions: Homo sapiens, read-out: Log TGI (converted)
HL-60 = assay: Tumor growth inhibition against HL60 cells; type: functional; conditions: Homo sapiens, read-out: Log TGI (converted)
[4] = Tumor growth inhibition of […] cells xenografted in immunodeficient mouse at 150 mg/kg/day after 25 days; type: functional; conditions: Homo sapiens, 600 h

Compound | GI50 [1] [nM] | GI50 [2] [nM] | Log TGI [3] | pGI50 [3] | TGI (HCC 2998) [nM] | TGI (HL-60) [nM] | inhibition in vivo at 150 mg/kg/day [4] [%]
COc1ccc(-c2nccn2-c2cc(OC)c(OC)c(OC)c2)cc1 | 1580 | 1150 | -4.16 | 5.34 |  |  | 
COc1ccc(-c2cncn2-c2ccc(OC)cc2)cc1 | 15500 | 19500 | -4.32 | 4.8 |  |  | 
COc1cc(-n2cncc2-c2ccc3ccccc3c2)cc(OC)c1OC | 18 | 17 | -4.4 | 7.14 | 29.5 |  | 
COc1cc(-c2nccn2-c2ccc3ccccc3c2)cc(OC)c1OC | 21 | 22 | -4.8 | 6.86 |  |  | 
COc1cc(-n2ccnc2-c2ccc3ccccc3c2)cc(OC)c1OC | 37 | 51 | -4.68 | 6.82 |  |  | 
COc1ccc(-n2ccnc2-c2cc(OC)c(OC)c(OC)c2)cc1 | 2340 | 1150 | -4.32 | 5.45 |  |  | 
COc1ccc(-c2cncn2-c2cc(OC)c(OC)c(OC)c2)cc1F | < 10 | < 10 | -4.51 | 7.4 |  | < 28.8 | 
COc1ccc(-c2cncn2-c2cc(OC)c(OC)c(OC)c2)cc1 | 363 | 170 | -4.71 | 6.59 |  |  | 52
COc1ccc(-c2nccn2-c2ccc(OC)cc2)cc1 | 17800 | 22900 | -4.19 | 4.76 |  |  | 
COc1ccc(/C=C\c2cc(OC)c(OC)c(OC)c2)cc1O [COMBRETASTATIN A4] | < 10 | < 10 | -5.03 | 7 |  |  | 
